Test results from US20210380586A1, “2-INDOLYL IMIDAZO[4,5-D]PHENANTHROLINE POLYMORPHS AND COMPOSITIONS REGARDING THE SAME” (Aptose Biosciences Inc., priority 2020, published 2021).

How the values were obtained:
[1] = system: xenograft models of solid tumors and hematologic cancers; assay: Nonclinical pharmacology xenograft studies; assay type: in vivo
Excerpt: (§1) Compound I is a small molecule that inhibits expression of the c-Myc oncogene, leading to cell cycle arrest and programmed cell death (apoptosis) in human-derived solid tumor and hematologic cancer cells.

[2] = system: KLF4, c-Myc, CDX2, p21, and GAPDH genes; assay: In vitro changes in gene expression; assay type: cell-based; settings: AML cell lines
Excerpt: (§2) Compound I free base and Compound I HCl salt were both tested for their in vitro antiproliferative potency against acute myeloid leukemia (AML) cell lines, for their concentration-dependent abilities to induce in vitro changes in gene expression (KLF4, c-Myc, CDX2, p21, and GAPDH genes) and to induce cell cycle arrest and apoptosis in AML cell lines.

AML cell lines = assay: Induction of cell cycle arrest and apoptosis; assay type: cell-based
Excerpt: as §2

c-Myc oncogene = assay: Inhibition of c-Myc expression in cancer cells; assay type: cell-based; settings: human-derived solid tumor and hematologic cancer cells
Excerpt: as §1

[3] = Formulation development: solubility and clinical infusion simulation through 5 μm in-line filter; assay type: physicochemical
Description: Various pharmaceutical compositions were prepared in order to develop a formulation suitable for IV administration. […] A desirable IV pharmaceutical composition will be a solution. Further, a desirable IV pharmaceutical composition, when diluted with IV fluids will remain in solution. In addition, a desirable IV pharmaceutical composition, when diluted with IV fluids will remain in solution and pass an in-line filter of about 5 μm.
Clinical infusion simulation study: formulated Compound I (equivalent to 4 mg/mL Compound I free base tetrahydrate) was mixed in-line with Lactated Ringers IV Solution through a controlled delivery system employing infusion pumps. The blended liquid was passed through a 5 μm in-line filter and the eluate was then passed to the end of the infusion line. Sample analysis was performed by collecting materials at 0, 15, 30, 60, 75, 90, 105, 115 and 120 minutes and analyzing immediately be visual assessment under a microscope.

[4] = system: acute myeloid leukemia (AML) cell lines; assay: In vitro antiproliferative assay; assay type: cell-based
Excerpt: as §2

Cc1[nH]c2ccc(F)cc2c1-c1nc2c3cccnc3c3ncccc3c2[nH]1 [Compound I, 2-(5-fluoro-2-methyl-1H-indol-3-yl)-1H-imidazo[4,5-f][1,10]phenanthroline]
in vivo anti-tumor activity [1]: demonstrated in vivo anti-tumor activity
concentration-dependent in vitro changes in gene expression, free base versus HCl salt [2]: behaved equivalently
induction of cell cycle arrest and apoptosis, free base versus HCl salt (AML cell lines): behaved equivalently
expression of the c-Myc oncogene (c-Myc oncogene): inhibits
solubility compared with Compound I-HCl under the same conditions ([3]; Solutol HS 15, PG, PEG-400, water): more soluble
apparent solubility while adding water to the formulation ([3]; in the beginning, approximately 3-10 mL water added): more soluble
behaviour upon addition of IV fluid ([3]; pharmaceutical composition prepared with Fischer Scientific's PG): crashed out of solution
effect of PEG-400 on solubility ([3]; tested conditions (entries 2 and 3)): did not improve solubility
apparent solubility while adding water to the formulation ([3]; upon complete addition of water (up to 60 mL), cloudy formulation): insoluble
in vitro antiproliferative potency, free base versus HCl salt [4]: behaved equivalently
